Assays:
Assay in all cases: viability relative to DMSO control (fraction); higher = less drug effect (more viable cells)
Settings in all cases: 48 h
[1] = test system: primary AML patient cells (S037)
Summary of the method: (§1)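 Viability was measured as CellTiter-Glo luminescence relative to the median of 16 inner DMSO wells. Primary mononuclear tumour cells, fresh or cryopreserved, were Ficoll-isolated from blood or bone marrow or taken from processed lymph node. They were seeded at 4 × 10^4 cells per well into 384-well plates holding pre-plated compounds at five concentrations, one well each, and kept in RPMI-1640 with penicillin/streptomycin, L-glutamine and human serum at 37 °C and 5% CO2 for 48 h.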

[2] = test system: primary AML patient cells (S025)
Summary of the method: as §1

[3] = test system: primary AML patient cells (S072)
Summary of the method: as §1

[4] = test system: primary AML patient cells (S079)
Summary of the method: as §1

[5] = test system: primary MCL patient cells (S053)
Summary of the method: as §1

[6] = test system: primary ALL patient cells (S048)
Summary of the method: as §1

[7] = test system: primary AML patient cells (S017)
Summary of the method: as §1

[8] = test system: primary AML patient cells (S056)
Summary of the method: as §1

[9] = test system: primary AML patient cells (S012)
Summary of the method: as §1

[10] = test system: primary AML patient cells (S019)
Summary of the method: as §1

[11] = test system: primary CLL patient cells (S031)
Summary of the method: as §1

[12] = test system: primary AML patient cells (S002)
Summary of the method: as §1

[13] = test system: primary FL patient cells (S022)
Summary of the method: as §1

[14] = test system: primary AML patient cells (S089)
Summary of the method: as §1

[15] = test system: primary BL patient cells (S005)
Summary of the method: as §1

[16] = test system: primary AML patient cells (S085)
Summary of the method: as §1

[17] = test system: primary AML patient cells (S091)
Summary of the method: as §1

[18] = test system: primary AML patient cells (S071)
Summary of the method: as §1

[19] = test system: primary MCL patient cells (S068)
Summary of the method: as §1

[20] = test system: primary CLL patient cells (S043)
Summary of the method: as §1

Compound `N#Cc1ccnc(N2C(=O)CC[C@H]2C(=O)N(c2cncc(F)c2)[C@H](C(=O)NC2CC(F)(F)C2)c2ccccc2Cl)c1` [AG-120] has a viability ([1]; 0.024 µM) of 1.04, a viability ([1]; 0.12 µM) of 1.04 and a viability ([1]; 0.6 µM) of 0.952. The viability ([1]; 3 µM) was 1.01, the viability ([1]; 15 µM) was 0.888 and the viability ([2]; 0.024 µM) was 1.04. The viability ([2]; 0.12 µM) was 1.06, the viability ([2]; 0.6 µM) was 0.85 and the viability ([2]; 3 µM) was 0.934. The viability ([2]; 15 µM) was 0.826, the viability ([3]; 0.024 µM) was 0.983 and the viability ([3]; 0.12 µM) was 1.1. It also gave a viability ([3]; 0.6 µM) of 0.87, a viability ([3]; 3 µM) of 0.919 and a viability ([3]; 15 µM) of 0.799. For the same compound, the viability ([4]; 0.024 µM) was 0.978, the viability ([4]; 0.12 µM) was 0.983 and the viability ([4]; 0.6 µM) was 0.879. For the same compound, the viability ([4]; 3 µM) was 0.959, the viability ([4]; 15 µM) was 0.844 and the viability ([5]; 0.024 µM) was 0.945. For the same compound, the viability ([5]; 0.12 µM) was 0.911, the viability ([5]; 0.6 µM) was 0.593 and the viability ([5]; 3 µM) was 0.887. For the same compound, the viability ([5]; 15 µM) was 0.641, the viability ([6]; 0.024 µM) was 0.828 and the viability ([6]; 0.12 µM) was 0.865. For the same compound, the viability ([6]; 0.6 µM) was 0.735, the viability ([6]; 3 µM) was 1.01 and the viability ([6]; 15 µM) was 0.745. For the same compound, the viability ([7]; 0.024 µM) was 1.04, the viability ([7]; 0.12 µM) was 0.988 and the viability ([7]; 0.6 µM) was 1.16. The viability ([7]; 3 µM) was 1.02, the viability ([7]; 15 µM) was 0.908 and the viability ([8]; 0.024 µM) was 0.866. The viability ([8]; 0.12 µM) was 0.833, the viability ([8]; 0.6 µM) was 0.72 and the viability ([8]; 3 µM) was 0.74. The viability ([8]; 15 µM) was 0.577, the viability ([9]; 0.024 µM) was 1.03 and the viability ([9]; 0.12 µM) was 1.06. It also gave a viability ([9]; 0.6 µM) of 1.04, a viability ([9]; 3 µM) of 0.987 and a viability ([9]; 15 µM) of 0.985. The viability ([10]; 0.024 µM) was 1.43, the viability ([10]; 0.12 µM) was 1.43 and the viability ([10]; 0.6 µM) was 0.934. For the same compound, the viability ([10]; 3 µM) was 1.34, the viability ([10]; 15 µM) was 0.833 and the viability ([11]; 0.024 µM) was 0.982. For the same compound, the viability ([11]; 0.12 µM) was 0.912, the viability ([11]; 0.6 µM) was 0.773 and the viability ([11]; 3 µM) was 0.807. For the same compound, the viability ([11]; 15 µM) was 0.715, the viability ([12]; 0.024 µM) was 0.901 and the viability ([12]; 0.12 µM) was 0.897. It also gave a viability ([12]; 0.6 µM) of 0.849, a viability ([12]; 3 µM) of 0.951 and a viability ([12]; 15 µM) of 0.766. It also gave a viability ([13]; 0.024 µM) of 0.858, a viability ([13]; 0.12 µM) of 0.833 and a viability ([13]; 0.6 µM) of 0.838. It also gave a viability ([13]; 3 µM) of 0.905, a viability ([13]; 15 µM) of 0.777 and a viability ([14]; 0.024 µM) of 0.664. For the same compound, the viability ([14]; 0.12 µM) was 0.916, the viability ([14]; 0.6 µM) was 0.818 and the viability ([14]; 3 µM) was 0.903. The viability ([14]; 15 µM) was 0.827, the viability ([15]; 0.024 µM) was 0.99 and the viability ([15]; 0.12 µM) was 1.02. For the same compound, the viability ([15]; 0.6 µM) was 1.43, the viability ([15]; 3 µM) was 1.01 and the viability ([15]; 15 µM) was 1.31. The viability ([16]; 0.024 µM) was 1.07, the viability ([16]; 0.12 µM) was 1 and the viability ([16]; 0.6 µM) was 0.959. For the same compound, the viability ([16]; 3 µM) was 1.03, the viability ([16]; 15 µM) was 0.886 and the viability ([17]; 0.024 µM) was 1.02. It also gave a viability ([17]; 0.12 µM) of 0.975, a viability ([17]; 0.6 µM) of 1.03 and a viability ([17]; 3 µM) of 1.56. It also gave a viability ([17]; 15 µM) of 1.03, a viability ([18]; 0.024 µM) of 1.03 and a viability ([18]; 0.12 µM) of 1.05. It also gave a viability ([18]; 0.6 µM) of 0.922, a viability ([18]; 3 µM) of 0.919 and a viability ([18]; 15 µM) of 0.751. It also gave a viability ([19]; 0.024 µM) of 0.995, a viability ([19]; 0.12 µM) of 1.02 and a viability ([19]; 0.6 µM) of 0.898. It also gave a viability ([19]; 3 µM) of 1.05, a viability ([19]; 15 µM) of 1.18 and a viability ([20]; 0.024 µM) of 0.819. It also gave a viability ([20]; 0.12 µM) of 0.925, a viability ([20]; 0.6 µM) of 0.925 and a viability ([20]; 3 µM) of 0.91. It also gave a viability ([20]; 15 µM) of 0.837.

Reference: the supplement of paper PMC10733146
